Experimental data reported in patent publication US20150031760A1, “PHARMACEUTICAL COMPOSITION FOR PREVENTING OR TREATING NERVOUS SYSTEM DISORDERS COMPRISING SULFURETIN OR PHARMACEUTICALLY ACCEPTABLE SALT THEREOF” (Research and Business Foundation SUNGKYUNKWAN UNIVERSITY, priority 2010, published 2015).

What was measured:
PC12 cells = experiment: MTT (cell viability) test, corticosterone-induced cell death in PC12 cells; assay type: cell-based; settings: Rattus norvegicus
Method: For the experiment shown in FIG. 3, PC12 cells were cultured in DMEM medium (Hyclone, Thermo, USA) containing 10% FBS, 5% horse serum and antibiotics (Gibco-BRL, USA). […] The concentration of corticosterone was determined to be 400 μM after evaluation of cell viability.

SH-SY5Y cells = experiment: Inhibition of mitochondrial membrane potential (MMP) damage (rhodamine-123); assay type: cell-based, human; settings: hydrogen peroxide-induced damage, 30 minutes pretreatment
Method: (§1) The incubator was maintained at a temperature of 37° C., and a mixed gas of 95% air and 5% CO2 was continuously supplied thereto to provide suitable conditions for cell culture. The cells were cultured in a 6-well plate or a 96-well plate at each of densities of 1×10^6 and 2×10^4 cells/well 24 hours before the experiment. […] Sulfuretin was used in ethanol and used at a final concentration of 0.1% or less.
In order to measure the inhibition of MMP damage, cells were labeled with rhodamine-123 fluorescence, and quantitative analysis was performed using a fluorescence meter. Specifically, the 6-well plate in which the cells have been cultured was pretreated with sulfuretin for 30 minutes and then reacted with hydrogen peroxide for 30 minutes to induce MMP damage. Then, 10 μl of 10 μM rhodamine-123 was added to each well of the plate and allowed to react for 30 minutes. Herein, rhodamine-123 in the incubator was covered with a silver foil such that it would not be exposed to light. The cells that reacted with the rhodamine-123 fluorescent substance were detached with cold PBS and centrifuged at 400 g for 3 minutes. The centrifugation process was repeated twice to wash the fluorescent substance. The washed cells were stirred briefly with 0.5 ml of PBS, and 100 μl was dispensed into each well of a fresh 96-well plate. The fluorescence of the cells was measured at an excitation wavelength of 480 nm and an emission wavelength of 530 nm using a fluorescence meter (Perkinelmer, USA).
The measured fluorescence was substituted into the following equation to calculate ΔΨm:
ΔΨm(%)=[(O.D. of control−O.D. of test group)/O.D. of control]×100

caspase-3 = experiment: Western blot, caspase-3 expression; assay type: cell-based, human; settings: SH-SY5Y cells
Method: as §1
In order to identify the effect of sulfuretin on the expression of proteins related to dementia, Alzheimer's disease, Parkinson's disease and strokes, a Western blot test was carried out.
After 24 hours, the supernatant of each well was collected and centrifuged at 400 g for 3 minutes, and the cells were washed with cold PBS and lysed with 100 μl of T-PER lysis buffer (Thermo, USA) for 30 minutes. The lysates were centrifuged at 10000 g at 4° C. for 15 minutes, and the supernatants were stored at […] until use as test samples. Proteins were quantitatively analyzed using a BCA assay kit (Thermo, USA) and separated within 8.5-12% SDS gel and then transferred to PVDF membranes. To examine the expression of the proteins, the development of fluorescence was analyzed by enhanced chemiluminescence (ECL). Specifically, the membrane was blocked with 5% skimmed non-fat milk for 1 hour and labeled with the primary antibodies, PARP, caspase-3, phospho-p38, phospho-JNK and β-actin at 4° C. overnight. Then, the membrane was washed three times with Tris-tween buffered saline (TTBS), and then labeled with horseradish peroxidase (HRP)-conjugated anti-rabbit and anti-mouse secondary antibodies at room temperature for 1 hour. Then, the membrane was washed five times with TTBS for 10 minutes. The washed film was developed by ECL using x-ray films, and concentrations were quantitatively analyzed using quantitative analysis program (Fujifilm, Japan).

β-CTF = experiment: Western blot, β-CTF level; assay type: cell-based, human; settings: Swedish APP mutant SH-SY5Y cells; sulfuretin 2.5, 5, 10 and 20 μM for 24 h; dose-dependent (p<0.001)
Method: For the experiments shown in FIGS. 11 to 13, SH-SY5Y and stable swedish APP mutant SH-SY5Y cells were grown in DMEM supplemented with 10% heat-inactivated FBS and 0.1% penicillin/streptomycin at 37° C. in a humidified atmosphere of 5% CO2 and 95% air. Cells were fed every three days and sub-cultured once they reached 80-90% confluency in […] cell culture dishes. Amyloid beta25-35 was prepared as a 20 mM stock immediately before use and diluted in PBS to the indicated final concentration. Prior to use, amyloid beta25-35 was dissolved in sterilized distilled water and was aggregated at 37° C. for five days. The test compounds were dissolved in DMSO and the stock solutions were added directly to the culture media to a final concentration of 0.1% (v/v) DMSO.
SH-SY5Y and stable swedish APP mutant SH-SY5Y cells (1×10^6 cells/well in 6-well plates) were incubated at 37° C. with or without 20 μM amyloid beta 25-35 for 6 or 24 h, with or without sulfuretin pretreatment, and then washed and harvested with ice-cold PBS and centrifuged at 400×g for 3 minutes. […] The protein concentration was determined using a protein assay kit (Thermo Scientific). […] Protein bands were quantified by densitometric analysis using Image Gauge 4.0 software (Fujifilm, Stamford, Conn., USA). […]

Structure (SMILES): O=C1/C(=C/c2ccc(O)c(O)c2)Oc2cc(O)ccc21 [sulfuretin]
- viability at 0.1 µg/mL (PC12 cells; PC-12, read-out: cell viability): ≥ 52%
- viability at 0.5 µg/mL (PC12 cells; PC-12, corticosterone-induced cell death, sulfuretin 0.5 μg/ml): ≥ 55%
- viability at 1 µg/mL (PC12 cells; PC-12, corticosterone-induced cell death, sulfuretin 1 μg/ml): ≥ 72%
- viability at 5 µg/mL (PC12 cells; PC-12, corticosterone-induced cell death, sulfuretin 5 μg/ml): ≥ 90%
- MMP (ΔΨm) (SH-SY5Y cells; sulfuretin 0.1 μg/ml): ≥ 56%
- MMP (ΔΨm) (SH-SY5Y cells; sulfuretin 0.5 μg/ml): ≥ 62%
- MMP (ΔΨm) (SH-SY5Y cells; sulfuretin 1 μg/ml): ≥ 91%
- MMP (ΔΨm) (SH-SY5Y cells; sulfuretin 5 μg/ml): ≥ 98%
- caspase-3 expression (caspase-3; hydrogen peroxide + sulfuretin 0.1 μg/ml): ≥ 24%
- caspase-3 expression (caspase-3; hydrogen peroxide + sulfuretin 0.5 μg/ml): ≥ 51%
- caspase-3 expression (caspase-3; hydrogen peroxide + sulfuretin 1 μg/ml): ≥ 127%
- β-CTF level (β-CTF): significantly inhibited
